Values quoted from earlier work in patent US20230310447A1, “METHODS OF TREATING AGE-RELATED COGNITIVE DECLINE” (Woolsey Pharmaceuticals, Inc., priority 2020, published 2023).

What was measured:
[1] = 1-hydroxy (M3) metabolite, in vivo; Shibuya 2001
memory in aging rats = settings: eighteen-month old rats; 0.1875 or 0.3750 mg per day, single daily injection; radial maze

## O=S(=O)(c1cccc2c(O)nccc12)N1CCCNCC1 [hydroxyfasudil]
[1]
  half-life: about 8 hours

## hydroxyfasudil
Memory in aging rats
  working memory: improvements in working memory
